Assay results reported in patent US10640507B2, “PBD antibacterial agents” (KING'S COLLEGE LONDON, priority 2015, dated 2020).
pIC50: −log10 of the molar value. In brackets after ≈: the same amount, converted by molar mass. Like-named read-outs stand apart in the source and are kept apart here.

Key:
Type in all cases: cell-based
K. pneumonia MGH 78578 = assay: General MIC protocol, Gram negative; settings: Klebsiella pneumoniae, MGH78578
Method: (§1) General Minimum Inhibitory Concentration (MIC) Protocol
(§2) 1. Grow up cultures of bacterial strains to be tested overnight.
(§3) 2. Dilute down overnight cultures to concentration of 1×10^6 bacteria/ml (OD0.01) in Tryptic soy broth (TSB).
(§4) 3. Add 100 μl of TSB media to column 2-column 12 in 96 well plate (keeping column 1 clear).
(§5) 4. Make up compound to a concentration of 64 μg/ml in water (or alternatively to twice the chosen maximum concentration to be tested).
(§6) 5. Add 100 μl of antibiotic solution to the 1st and 2nd columns.
(§7) 6. Using a multichannel pipette take 100 μl from the 2nd column wells and pipette into 3rd column wells and repeat down the 96 well plate (remembering to include controls i.e. uninfected media and media with no antibiotic).
(§8) 7. To each well (except uninfected control row H) add 100 μl of bacterially infected media at a concentration of 1×10^6/ml.
(§9) 8. This dilutes down the concentration of the antibiotic by half (top dose is therefore 32 μg/ml in column 1) and also gives you a starting bacterial concentration of 5×10^5/ml.
(§10) 9. Wrap plate with parafilm to prevent evaporation.
(§11) 10. Leave at desired temperature (37° C. unless specified elsewhere) for 20 hours.
(§12) 11. Next day check plates for growth and measure optical density (i.e. absorbance) at a wavelength of 600 nm (OD600).
(§13) An example of such a plate is shown in FIG. 1 where column A represents wells that receive the top dose 100 μl; column B represents wells that receive the top dose 100 μl+100 μl TSB; and column C represents wells that receive 100 μl TSB. Row H which is marked by a box labelled D represents a blank where the cells receive no bacteria.

K. pneumonia NCTC 13439 = assay: General MIC protocol, Gram negative; settings: Klebsiella pneumoniae, NCTC13439
Method: as §1, §2, §3, §4, §5, §6, §7, §8, §9, §10, §11, §12, §13

P. aeruginosa PA01 = assay: General MIC protocol, Gram negative
Method: as §1, §2, §3, §4, §5, §6, §7, §8, §9, §10, §11, §12, §13

[1] = test system: E. faecalis VRE NCTC 12201; assay: General MIC protocol, Gram positive panel
Method: as §1, §2, §3, §4, §5, §6, §7, §8, §9, §10, §11, §12, §13

E. faecalis VSE NCTC 775 = assay: General MIC protocol, Gram positive panel; settings: Enterococcus faecalis, NCTC775; VSE 775
Method: as §1, §2, §3, §4, §5, §6, §7, §8, §9, §10, §11, §12, §13

[2] = test system: E. faecium VRE NCTC 12204; assay: General MIC protocol, Gram positive panel
Method: as §1, §2, §3, §4, §5, §6, §7, §8, §9, §10, §11, §12, §13

EMRSA-15 = assay: General MIC protocol, Gram positive panel
Method: as §1, §2, §3, §4, §5, §6, §7, §8, §9, §10, §11, §12, §13

EMRSA-16 = assay: General MIC protocol, Gram positive panel
Method: as §1, §2, §3, §4, §5, §6, §7, §8, §9, §10, §11, §12, §13

[3] = test system: methicillin sensitive S. aureus ATTC 9144 (NCTC 6571); assay: General MIC protocol, Gram positive panel; settings: Staphylococcus aureus, MSSA / NCTC 6571; MSSA 9144
Method: as §1, §2, §3, §4, §5, §6, §7, §8, §9, §10, §11, §12, §13

A. baumannii AYE = assay: General MIC protocol, Gram negative; settings: Acinetobacter baumannii
Method: as §1, §2, §3, §4, §5, §6, §7, §8, §9, §10, §11, §12, §13

A. baumannii NCTC 17978 = assay: General MIC protocol, Gram negative; settings: Acinetobacter baumannii, NCTC17978
Method: as §1, §2, §3, §4, §5, §6, §7, §8, §9, §10, §11, §12, §13

K. pneumonia KP16 = assay: General MIC protocol, Gram negative; settings: Klebsiella pneumoniae, KP16
Method: as §1, §2, §3, §4, §5, §6, §7, §8, §9, §10, §11, §12, §13

K. pneumonia M6 = assay: General MIC protocol, Gram negative; settings: Klebsiella pneumoniae; KP-M6
Method: as §1, §2, §3, §4, §5, §6, §7, §8, §9, §10, §11, §12, §13

K. pneumonia NCTC 13368 = assay: General MIC protocol, Gram negative; settings: Klebsiella pneumoniae, NCTC13368
Method: as §1, §2, §3, §4, §5, §6, §7, §8, §9, §10, §11, §12, §13

K. pneumonia NCTC 13438 = assay: General MIC protocol, Gram negative; settings: Klebsiella pneumoniae, NCTC13438
Method: as §1, §2, §3, §4, §5, §6, §7, §8, §9, §10, §11, §12, §13

K. pneumonia NCTC 13443 = assay: General MIC protocol, Gram negative; settings: Klebsiella pneumoniae, NCTC13443
Method: as §1, §2, §3, §4, §5, §6, §7, §8, §9, §10, §11, §12, §13

K. pneumonia NCTC 51851 = assay: General MIC protocol, Gram negative; settings: Klebsiella pneumoniae, NCTC51851
Method: as §1, §2, §3, §4, §5, §6, §7, §8, §9, §10, §11, §12, §13

P. aeruginosa NCTC 13437 = assay: General MIC protocol, Gram negative
Method: as §1, §2, §3, §4, §5, §6, §7, §8, §9, §10, §11, §12, §13

[4] = test system: HeLa (Cervical cancer cell line); assay: MTT cytotoxicity assay; settings: Homo sapiens, MTT, 24 h continuous exposure, read-out: IC50 HeLa (Cervical cancer cell line)
Method: (§14) Two immortalised human cell lines, HeLa and WI38 were used for cytotoxicity screening of the compounds. HeLa is a human cervical cancer cell line and WI38 is a normal healthy cell line. The cell lines were obtained from the American Type Culture Collection. The cell-lines were maintained in monolayer culture in 75 cm2 flasks (TPP, Switzerland) under a humidified 5% CO2 atmosphere at 37° C. The HeLa cell line was maintained in Dulbecco's Modified Eagles Media (DMEM; Invitrogen) supplemented with foetal bovine serum (10% v/v; Invitrogen), L-glutamine (2 mM; Invitrogen), non-essential amino acids (1×; Invitrogen) and Penicillin-Streptomycin (1% v/v, Invitrogen). For WI38, Eagle's Minimum Essential Medium, and Penicillin-Streptomycin (1% v/v, Invitrogen) and foetal bovine serum (10%, nvitrogen) was used. For passaging, cells were washed with phosphate buffered saline [PBS] (GIBCO 14040, Invitrogen, UK), incubated with trypsine (GIBCO 25300, Invitrogen, UK), and re-seeded into fresh medium. For seeding, cells were counted using a Neubauer haemocytometer (Assistant, Germany) by microscopy (Nikon, USA) on a non-adherent suspension of cells that were washed in PBS, trypsinised, centrifuged at 8° C. at 8000 rpm for 5 min and re-suspended in fresh medium.
(§15) The cells were grown in normal cell culture conditions at 37° C. under a 5% CO2 humidified atmosphere using appropriate medium. The cell count was adjusted to 10^5 cells/ml/ and 20,000 cells were added per well. The cells were incubated for 24 hours and 1 μl of the appropriate inhibitor concentrations were to the wells in triplicates. After 24 h of continuous exposure to each compound, the cytotoxicity was determined using the MIT (3-(4,5-Dimethylthiazol-2-yl)-2,5-diphenyltetrazolium bromide) (Lancaster Synthesis Ltd, UK) colorimetric assay. Absorbance was quantified by spectrophotometry at λ=570 nm (Envision Plate Reader, PerkinElmer, USA). IC50 values were calculated by a dose-response analysis using the Prism Graphpad Prism® software. The cytotoxicity results are shown below in Table 12.

WI38 (Healthy cell line) = assay: MTT cytotoxicity assay; settings: Homo sapiens, WI-38; MTT; 24 h continuous exposure; highest concentration tested 20 μM; read-out: IC50 WI38 (Healthy cell line)
Method: as §14, §15

[5] = Pseudomonas aeruginosa, NCTC13437
[6] = Pseudomonas aeruginosa, PA01, PA01

| SMILES | MIC [1] [µg/mL] | MIC (E. faecalis VSE NCTC 775) [µg/mL] | MIC [2] [µg/mL] | MIC (EMRSA-15) [µg/mL] | MIC (EMRSA-16) [µg/mL] | MIC [3] [µg/mL] | MIC (A. baumannii AYE) [µg/mL] | MIC (A. baumannii NCTC 17978) [µg/mL] | MIC (K. pneumonia KP16) [µg/mL] | MIC (K. pneumonia M6) [µg/mL] | MIC (K. pneumonia MGH 78578) [µg/mL] | MIC (K. pneumonia NCTC 13368) [µg/mL] | MIC (K. pneumonia NCTC 13438) [µg/mL] | MIC (K. pneumonia NCTC 13439) [µg/mL] | MIC (K. pneumonia NCTC 13443) [µg/mL] | MIC (K. pneumonia NCTC 51851) [µg/mL] | MIC (P. aeruginosa NCTC 13437; [5]) [µg/mL] | MIC (P. aeruginosa PA01; [6]) [µg/mL] | pIC50 [4] | pIC50 (WI38 (Healthy cell line)) | further results |
| --- | --- | --- | --- | --- | --- | --- | --- | --- | --- | --- | --- | --- | --- | --- | --- | --- | --- | --- | --- | --- | --- |
| O=C(O)c1cn(C2CC2)c2cc(N3CCNCC3)c(F)cc2c1=O [CIP, ciprofloxacin, reference compound] |  |  |  |  |  |  |  |  |  |  |  |  |  |  |  |  |  |  |  |  | MIC (K. pneumonia MGH 78578; K. pneumonia MGH 78578, read-out: MIC): 1 µg/mL (≈ 3.02 µM); MIC (K. pneumonia NCTC 13439; K. pneumonia NCTC 13439, read-out: MIC): 8 to 16 µg/mL (≈ 24.1 to 48.3 µM); MIC (P. aeruginosa PA01; Pseudomonas aeruginosa, PA01, read-out: MIC): 1 µg/mL (≈ 3.02 µM) |
| COc1cc2c(cc1OCCCC(=O)Nc1cc(C(=O)Nc3ccc4sc(C(=O)N(C)C)cc4c3)n(C)c1)N=C[C@@H]1CCCN1C2=O [KMR-14-33, (S)—N-(2-(dimethylcarbamoyl)benzo[b]thiophen-5-yl)-4-(4-((7-methoxy-5-oxo-2,3,5,11a-tetrahydro-1H-benzo[e]pyrrolo[1,2-a][1,4]-diazepin-8-yl)oxy)butanamido)-1-methyl-1H-pyrrole-2-carboxamide] | 0.03 (≈ 0.0457 µM) | 0.03 (≈ 0.0457 µM) | 0.03 (≈ 0.0457 µM) | 0.03 (≈ 0.0457 µM) | 0.06 (≈ 0.0914 µM) | 0.03 (≈ 0.0457 µM) | 1 (≈ 1.52 µM) | 0.5 (≈ 0.761 µM) | 0.25 (≈ 0.381 µM) | 1 (≈ 1.52 µM) | 1 (≈ 1.52 µM) | 2 (≈ 3.05 µM) | 0.5 (≈ 0.761 µM) | 2 (≈ 3.05 µM) | 2 (≈ 3.05 µM) | 2 (≈ 3.05 µM) | > 32 | > 32 | 4.81 | < 4.70 | MIC (P. aeruginosa NCTC 13437; NCTC 13437, KMR-14-33 alone): 32 µg/mL (≈ 48.7 µM); MIC (P. aeruginosa PA01; PA01, KMR-14-33 alone): > 32 µg/mL |
| COc1cc2c(cc1OCCCC(=O)Nc1cc(C(=O)Nc3ccc4oc(C(=O)N5CCSCC5)cc4c3)n(C)c1)N=C[C@@H]1CCCN1C2=O [PP-A148, (S)-4-(4-((7-methoxy-5-oxo-2,3,5,11a-tetrahydro-1H-benzo-[e]pyrrolo[1,2-a][1,4]diazepin-8-yl)oxy)butanamido)-1-methyl-N-(2-(thiomorpholine-4-carbonyl)benzofuran-5-yl)-1H-pyrrole-2-carboxamide] | 0.25 to 0.5 (≈ 0.358 to 0.716 µM) | 1 (≈ 1.43 µM) | 0.01 (≈ 0.0143 µM) | 2 (≈ 2.86 µM) | 2 (≈ 2.86 µM) | 0.5 (≈ 0.716 µM) | 2 (≈ 2.86 µM) | 2 (≈ 2.86 µM) | 0.25 to 0.5 (≈ 0.358 to 0.716 µM) | 0.25 to 0.5 (≈ 0.358 to 0.716 µM) | 4 to 8 (≈ 5.72 to 11.4 µM) | 16 to 32 (≈ 22.9 to 45.8 µM) | 4 to 8 (≈ 5.72 to 11.4 µM) | 4 to 8 (≈ 5.72 to 11.4 µM) | 16 (≈ 22.9 µM) | 4 (≈ 5.72 µM) | 16 (≈ 22.9 µM) | 128 (≈ 183 µM) | < 4.70 | < 4.70 | MIC (P. aeruginosa PA01; PA01): >128 µg/mL |
